Data: patent publication US7388006B2, “Non-steroidal progesting” (Bayer Schering Pharma AG, priority 2002, dated 2008)

Tests used:
PR-A = format: cell-based; settings: PR-A efficacy minus PR-B efficacy
Description: The method for screening for PR isoform-specific progestins according to the present invention is carried out with first and second SK-N-MC cells stably transfected with a plasmid expressing the HPR-A (first cells) or the hPR-B (second cells) and the LUC reporter gene linked to the hormonally responsive MTV promoter.
The cells are cultured in Minimum Essential Medium with Earl's Salts (S-MEM, without L-glutamine; Gibco BRL, no. 21090-022), supplemented with 10% fetal calf serum (FCS), penicillin 100U/streptomycin 100 μg/ml (Biochrom, no. A2213), L-glutamine 4 mmol/l (Gibco BRL, no. 25030-024), sodium pyruvate 1 mmol/l (Biochrom, no. L0473) and 1×non-essential amino acids (Biochrom, no. K0293) at a temperature of 37° C. and in an atmosphere of 5% carbon dioxide.
For the transcription assay, the cells are seeded onto 96-well dishes (2×10^4 cells/dish) and cultured in a medium as described above, with the exception that the FCS is replaced by a 3% charcoal stripped FCS. 48 hours later, cells are contacted with prediluted test compounds. For determination of agonistic activity, cells are cultured in the presence of 6 increasing concentrations (10^−6 to 10^−11 mol/l) of test progestins. As a positive control for reporter gene induction cells are treated with 10^−6 to 10^−11 mol/l R5020 (promegestone). As a negative control for reporter gene induction, cells are cultured in 1% ethanol.
After incubation with test progestins for 24 hours, the medium is removed and cells are lysed with 20 μl of lysis buffer (Luciferase Assay System E 153A; Promega) and under agitation of the plate for 101 min. After addition of 30 μl of luciferase reagent (Luciferase Assay System E 151A+152A; Promega) within 30 seconds per plate, the activity of the luciferase reporter gene product is determined in the cell lysates by means of a Microlite ML 3000 microtiter plate luminometer (Dynatech) in cycle mode.
Evaluation of the response gives the efficacy [%], and evaluation of the EC50s values gives the potency [nM]. Calculation of the agonistic activity is conducted as follows:
The LUC activity [%] for the measured data points is calculated as follows:
[formula] wherein CI=100% stimulation (R5020, 10^−7 mol/l) and CO=0% stimulation (ethanol, 1%).
Thus, the efficacy [%] is calculated according to: […]
The potency [nM], i.e. the EC50, is determined graphically.

[1] = system: pregnancy in ovariectomized rats; assay: Pregnancy maintenance test in rat; format: in vivo; settings: ovariectomized pregnant rats, with estrone
Text: In rats, castration induces termination of pregnancy. Progestins (combined with estrogens) are capable of maintaining pregnancy in castrated animals. However, the degree of pregnancy maintenance in castrated rats is optimal only in a defined dose range. Therefore, higher as well as lower doses generally induce a weaker effect. Accompanying treatment with defined doses of estrone (E1) increases the pregnancy maintaining effect of progestins.
Pregnant rats (Wistar Han, SPF) of 190 to 220 g (5 to 8 animals per dose) are ovariectomized on day 8 of pregnancy, 2 hours after the first substance administration. From day 8 to day 14, rats are daily treated with test progestin in combination with a standard dose of E1. One day later, animals are killed with carbon dioxide. For each animal, the number of living and dead fetuses is determined according to the heartbeat of the embryos. In case of empty uteri, the number of implantation sites is determined by means of staining with a 10% ammonium sulfide solution.
S.c. (subcutaneous) application: The test progestin is dissolved in benzyl benzoate/castor oil (1+4 v/v), and the daily dose is administered in a volume of 1 ml/kg body weight.
P.o. (peroral) application: The test progestin is suspended in a carrier liquid (85 mg Myrj^R in 100 ml 0.9% w/v NaCl solution), and the daily dose is administered in a volume of 2 ml/kg body weight.
I.p. (intraperitoneal) application: The test progestin is dissolved in propylene glycol and charged in miniature osmotic pumps (type 2001, 1.0 μl/h, 7 days), which are placed in the abdominal cavity of the rat.
The standard dose of estrone is 0.005 mg/kg body weight s.c. and is dissolved in benzyl benzoate/castor oil ([…]).
It is determined the pregnancy maintenance per animal [%], the pregnancy maintenance per dose (median of single values) and the EC50 (dose, at which pregnancy is maintained in 50% of the animals; 100% corresponds to control animals that are not ovariectomized). The results of the test are further discussed below in c).

rat mammary epithelium = assay: MIB-5 immunohistochemistry, proliferation of the mammary epithelium; format: in vivo; settings: 0.3 mg/kg/d, FIG. 2
Description: In order to determine the effects of test progestins according to the present invention, in particular compound ((+)-1), in mammary gland differentiation and proliferation, premature female rats (Wistar Han, SPF) are ovariectomized at the age of 21 days, 4 to 6 days before treatment start. The animals are treated for 6 days with standard estrogen (estrone (E1), 70 μg/kg) and the test progestin ((+)-1) (application volume: 0.1 ml/50 g body weight; vehicle: benzylbenzoate/castor oil (1+4 v/v); subcutaneous). Control groups are e.g.: vehicle, estrone without progestin, estradiol together with a known progestin, e.g. R5020 (promegestone). After the 6-day treatment the animals are killed with carbon dioxide.
For the whole mount staining, animals are shaved in the left abdominal inguinal mammary region, which is cut from the body together with the skin. For the histological/immunohistochemical analyses the right abdominal inguinal mammary gland is cut from the body together with the connective-tissue adhered thereto and fixed in 3.7% formalin in PBS (phosphate buffer saline; without Ca^2+/Mg^2+).
For a more detailed evaluation of the proliferation of the mammary epithelium, cells are stained with the proliferation marker MIB-5 as follows (cf. FIG. 2): Mammary glands are fixed in 4% formaldehyde/PBS for 24 h and embedded in paraffm. 4 μm sections are spread on slides, deparaffinized, treated with microwaves for 10 min. in citrate buffer pH 6.0 and rinsed with PBS. Slides are then blocked with 3% H2O2/methanol for 15 min., Blockingkit (Vektor, no. SP-2001) for 10 min. and rat serum (Sigma, no. S-7648) diluted 1:2 in PBS for 30 min to reduce nonspecific staining and rinsed in PBS. Slides are incubated for 1 hour with monoclonal antibody MIB-5 (Dianova, no. Dia-5055), which is specific for the rat Ki-67 antigen (1:200 diluted in PBS/0.2% BSA). […]
In order to characterize a test compound, the percentage of MIB-5 stained mammary epithelium cells is determined. […]

In the case of `Cc1noc(=O)c2ccc(NC(=O)C(O)(CC3(c4cccc(C(F)(F)F)c4F)CC3)C(F)(F)F)cc12` (single isomer, unassigned; (+)) [((+)-2), (+)-6-{2-hydroxy-3-[1-(2-fluoro-3-trifluoromethylphenyl)-cyclopropyl]-2-trifluoro-methyl-propionylamino}-4-methyl-2,3-benzoxazin-1-one], the “Δ agonism efficacies (A-B)” value (PR-A) was 32.

For `Cc1noc(=O)c2ccc(NC(=O)C(C)(O)CC3(c4cccc(C(F)(F)F)c4)CC3)cc12` (single isomer, unassigned; (+)) [((+)-3), (+)-6-{2-hydroxy-3-[1-(3-trifluoromethylphenyl)-cyclopropyl]-2-methyl-propionylamino}-4-methyl-2,3-benzoxazin-1-one], the “Δ agonism efficacies (A-B)” value (PR-A) was 23.

For `O=C1OCc2cc(NC(=O)C(O)(CC3(c4cccc(C(F)(F)F)c4F)CC3)C(F)(F)F)ccc21` (single isomer, unassigned; (+)) [((+)-4), (+)-5-{2-hydroxy-3-[1-(2-fluoro-3-trifluoromethylphenyl)-cyclopropyl]-2-trifluoromethyl-propionylamino}-phthalide], the “Δ agonism efficacies (A-B)” value (PR-A) was 18.

Work on `Cc1noc(=O)c2ccc(NC(=O)C(C)(O)CC3(c4cccc(C(F)(F)F)c4)CC3)cc12` (single isomer, unassigned; (-)) [((−)-3), (−)-6-{2-Hydroxy-3-[1-(3-trifluoromethylphenyl)-cyclopropyl]-2-methyl-propionylamino}-4-methyl-2,3-benzoxazin-1-one] yielded a melting point of 129 to 130 °C.

With `CCC(=O)[C@@]1(C)CC[C@H]2[C@@H]3CCC4=CC(=O)CCC4=C3CC[C@@]21C` [R5020, promegestone, reference compound] the “Maintenance of pregnancy (rat) [EC50]” value [1] was 0.1 mg/kg/day and the MIB-5 positive cells (rat mammary epithelium) was ~42%.
